Assay results: US12377058B1, “Method for inhibiting proliferation of cancer cells” (IMAM MOHAMMAD IBN SAUD ISLAMIC UNIVERSITY, priority 2024, dated 2025)
In brackets after ≈: the same amount, converted by molar mass.

Columns and labels:
Format in all cases: cell-based
[1] = system: A549 lung cancer stem cells; assay: cytotoxic IC50 evaluation against A549 cells
Description: (§1) Referring to FIG. 3, cytotoxic inhibitory concentration of 50 (IC50) evaluation of YS3 against various cancer cells is illustrated.

HELA cancer stem cells = assay: cytotoxic IC50 evaluation against HeLa cells
Description: as §1

[2] = system: MDA-MB-468 cancer stem cells; assay: cytotoxic IC50 evaluation against MDA-MB-468 cells; settings: Homo sapiens, read from FIG. 3
Description: as §1

PC3 cancer stem cells = assay: cytotoxic IC50 evaluation against PC3 cells
Description: as §1

FaDu cancer stem cells = assay: cytotoxic IC50 evaluation against FaDu cells; settings: Homo sapiens, read from FIG. 3
Description: as §1

CCCCCOc1ccc(Oc2ccc(C=O)cc2)cc1 [YS3, 4-(4-(pentoxy)phenoxy)benzaldehyde]
performance compared to doxorubicin (DOX) ([1]; A549 cell line): comparable to DOX
IC50 ([1]; Homo sapiens, A549 lung cancer stem cells, read from FIG. 3): ~5 µg/mL (≈ 17.6 µM)
performance compared to doxorubicin (DOX) (HELA cancer stem cells; HeLa cell line): comparable to DOX
IC50 (HELA cancer stem cells; Homo sapiens, HELA cancer stem cells, read from FIG. 3): ~5 µg/mL (≈ 17.6 µM)
IC50 [2]: ~4.5 µg/mL (≈ 15.8 µM)
IC50 (PC3 cancer stem cells; Homo sapiens, PC-3, PC3 cancer stem cells, read from FIG. 3): ~4 µg/mL (≈ 14.1 µM)
performance compared to doxorubicin (DOX) (PC3 cancer stem cells; PC3 cell line): comparable to DOX
IC50 (FaDu cancer stem cells): ~4 µg/mL (≈ 14.1 µM)
